Measurements: publication PMC9861386, “N-Heterocyclic Carbene-Iridium Complexes as Photosensitizers for In Vitro Photodynamic Therapy to Trigger Non-Apoptotic Cell Death in Cancer Cells” (Molecules, 2023)
Like-named read-outs stand apart in the source and are kept apart here.

Tests used:
[1] = system: PC-3 prostate cancer cells; assay: MTT cell viability, 72 h, dark or 458 nm irradiation; assay type: cell-based, human; conditions: for GI50: 72 h, MTT; for PI PC-3: GI50 non-irradiated / GI50 irradiated; for SI vs MC3T3, PC-3 Blue / SI vs NIH, PC-3 Blue: blue light; for SI vs MC3T3, PC-3 Blue / SI vs MC3T3, PC-3 Dark: GI50 MC3T3 / GI50 PC-3; for SI vs NIH, PC-3 Blue / SI vs NIH, PC-3 Dark: GI50 NIH-3T3 / GI50 PC-3
Experimental: (§1) For all biology experiments, the compounds were solubilized in DMSO to reach a final fixed concentration equal to 0.1% v/v to avoid cytotoxicity caused by DMSO [89]. The results are normalized to controls (0.1% v/v DMSO). Depending on the cell type, approximatively 1000 to 10,000 cells/cm^2 were seeded in 48-well plates for MTT, ATP and GSH assays and 60 mm Petri dishes for Western blots. Cells were allowed to attach overnight and then incubated for 4 h with the different complexes (in the dark), then irradiated for 10 min, followed by an incubation in the dark up to 72 h.
(§2) Irradiation was conducted using an in-house device: a series of blue light LEDs selected according to the absorption spectra of the compounds at a 458 nm wavelength with an emitted power of 9.6 watts. The absorbed energy, or irradiance, was measured at 458 nm with a Thorlabs Optical Power Meter PM100A at 5 and 10 cm distance between the cell layer and the light source and expressed as mW/cm^2.
(§3) A tetrazolium-based MTT reagent (3-(4,5-dimethylthiazol-2-yl)-2,5-diphenyltetrazolium bromide) was used to determine cell viability, as previously described. After 72 h of treatment at 37 °C and 5% CO2, cells were incubated with 25 μL MTT solution (5 mg/mL; Sigma-Aldrich) for 4 h. After solubilization with 500 μL of lysis buffer (DMSO), formazan was quantified by spectrophotometry with a microplate reader at 570 nm absorbance (ClarioSTAR, BMG LabTech, Champigny-sur-Marne, France). GI50 values corresponding to the concentration that caused 50% inhibition of cell proliferation were calculated from dose–response curves obtained by nonlinear regression analysis. All results were calculated from data obtained in at least three independent experiments.

[2] = system: A549 lung cancer cells; assay: as above; assay type: cell-based, human; conditions: for GI50: 72 h, MTT; for PI A549: GI50 non-irradiated / GI50 irradiated; for SI vs MC3T3, A549 Blue / SI vs NIH, A549 Blue: blue light; for SI vs MC3T3, A549 Blue / SI vs MC3T3, A549 Dark: GI50 MC3T3 / GI50 A549; for SI vs NIH, A549 Blue / SI vs NIH, A549 Dark: GI50 NIH-3T3 / GI50 A549
Experimental: as §1, §2, §3

[3] = system: MCF7/FasR breast cancer cells; assay: as above; assay type: cell-based, human; conditions: for GI50: 72 h, MTT; for PI MCF7: GI50 non-irradiated / GI50 irradiated; for SI vs MC3T3, MCF7 Blue / SI vs NIH, MCF7 Blue: blue light; for SI vs MC3T3, MCF7 Blue / SI vs MC3T3, MCF7 Dark: GI50 MC3T3 / GI50 MCF7; for SI vs NIH, MCF7 Blue / SI vs NIH, MCF7 Dark: GI50 NIH-3T3 / GI50 MCF7
Experimental: as §1, §2, §3

[4] = system: HeLa cervix cancer cells; assay: as above; assay type: cell-based, human; conditions: for GI50: 72 h, MTT; for PI HeLa: GI50 non-irradiated / GI50 irradiated; for SI vs MC3T3, HeLa Blue / SI vs NIH, HeLa Blue: blue light; for SI vs MC3T3, HeLa Blue / SI vs MC3T3, HeLa Dark: GI50 MC3T3 / GI50 HeLa; for SI vs NIH, HeLa Blue / SI vs NIH, HeLa Dark: GI50 NIH-3T3 / GI50 HeLa
Experimental: as §1, §2, §3

[5] = system: T24 bladder cancer cells; assay: as above; assay type: cell-based, human; conditions: for GI50: 72 h, MTT; for PI T24: GI50 non-irradiated / GI50 irradiated; for SI vs MC3T3, T24 Blue / SI vs NIH, T24 Blue: blue light; for SI vs MC3T3, T24 Blue / SI vs MC3T3, T24 Dark: GI50 MC3T3 / GI50 T24; for SI vs NIH, T24 Blue / SI vs NIH, T24 Dark: GI50 NIH-3T3 / GI50 T24
Experimental: as §1, §2, §3

[6] = Photophysical measurements (emission, quantum yield, lifetime) in CH2Cl2; assay type: physicochemical; conditions: for τ1 excited-state lifetime: CH2Cl2; for ΦPL emission quantum yield: CH2Cl2, 298 K, references POPOP and quinine sulfate
Excerpt: All complexes have been photophysically investigated at standard pressure in CH2Cl2 at 298 K. The absorption spectra of complexes 4a to 4g in CH2Cl2 at 298 K are shown in Figure 7. The strong absorption bands below 300 nm correspond to spin-allowed ^1π→π* electronic ligand-centered (LC) transitions. The structureless bands at 300–360 nm are attributed to ppy-to-ppy ^1π→π* […] charge transfer (LLCT) and Ir-to-ppy metal-to-ligand charge transfer (MLCT) transitions. The lowest-lying bands in the visible region can be assigned to both singlet and triplet MLCT transitions. No significant difference in the absorption spectra of complexes 4a to 4g can be found in the CH2Cl2 solution.
The luminescence spectra of complexes 4a to 4f in CH2Cl2 at 298 K are shown in Figure 8 and their photophysical data are summarized in Table 1.
The relative emission quantum yields (ΦPL) of these complexes in CH2Cl2 at room temperature were measured by using POPOP and quinine sulfate in 1 N H2SO4 as standard references (ΦPL = 97% and ΦPL = 54%, respectively). […] In addition, the excited-state lifetimes of complexes 4a to 4d are in the range of 166.4–190.7 ns, indicating the phosphorescence nature of the emissions.
UV/Vis absorption spectra were recorded at RT on solutions contained in quartz cuvettes (optical pathlength 1 cm, Hellma® (HELLMA, Müllheim, Germany)) with a PerkinElmer® (PerkinElmer, Waltham, MA, USA) UV/VIS/NIR spectrophotometer Lambda 950 and a PerkinElmer® detector UV/VIS/NIR Accessory 2D Detector Module.
Fluorescence and phosphorescence emission spectra were obtained with a HORIBA JOBIN YVON (Bensheim, Germany) fluromax-4 and spectrofluorometer.
Luminescence quantum yields were measured according to the method of Demas and Crosby, on solution samples at RT. The quantum yield is defined as: ΦS=ΦR*As/Ar* ηs/ηr^2^2 where ΦS is the quantum yield of the sample, ΦR is the known quantum yield of the reference standard at the area subtended by the emission band (on a wavelength scale) and η is the refractive index of the solvent used for the preparation of the solution. As (related to the sample) and Ar (related to the reference) must be excitation wavelength. Different standards were selected depending on the spectral region of the interest: POPOP in hexane (Φ = 97%) and QUININNE in water (Φ = 54%).
Fluorescence lifetime measurements were performed by an Edinburgh FLS920 spectrofluorometer equipped with a TCC900 card for data acquisition in time-correlated single-photon counting experiments (0.5 ns time resolution) with a D2 lamp and an LDH-P-C-405 pulsed diode laser. The estimated experimental error was 2 nm on the band maximum (5% on the lifetime, 10% on the fluorescence quantum yield).

[7] = system: panel of five cancer cell lines (T24, PC-3, MCF7, A549, HeLa); assay: MTT cell viability, 72 h, pooled over the cancer cell panel; assay type: cell-based, human
Experimental: as §1, §2, §3

[8] = 458 nm irradiation 10 min, read-out: GI50 PC-3 Blue
[9] = 458 nm irradiation 10 min, read-out: GI50 A549 Blue
[10] = 458 nm irradiation 10 min, read-out: GI50 MCF7 Blue
[11] = 458 nm irradiation 10 min, read-out: GI50 HeLa Blue
[12] = 458 nm irradiation 10 min, read-out: GI50 T24 Blue

SMILES | GI50 [1, 8] | PI PC-3 [1] | SI vs MC3T3, PC-3 Blue [1] | SI vs NIH, PC-3 Blue [1] | GI50 ([1]; dark, read-out: GI50 PC-3 Dark) | SI vs MC3T3, PC-3 Dark ([1]; dark) | SI vs NIH, PC-3 Dark ([1]; dark) | GI50 [2, 9] | PI A549 [2] | SI vs MC3T3, A549 Blue [2] | SI vs NIH, A549 Blue [2] | GI50 ([2]; dark, read-out: GI50 A549 Dark) | SI vs MC3T3, A549 Dark ([2]; dark) | SI vs NIH, A549 Dark ([2]; dark) | GI50 [3, 10] | PI MCF7 [3] | SI vs MC3T3, MCF7 Blue [3] | SI vs NIH, MCF7 Blue [3] | GI50 ([3]; dark, read-out: GI50 MCF7 Dark) | SI vs MC3T3, MCF7 Dark ([3]; dark) | also measured
CSc1ccc(-[n+]2ccn3[c]2[Ir-3]24([c]5ccccc5-c5cccc[n+]52)([c]2ccccc2-c2cccc[n+]24)[c]2n(cc[n+]2-c2ccc(SC)cc2)C3)cc1.F[P-](F)(F)(F)(F)F [Complex 4d] | 157 nM | 3.2 | 11.5 | 17.7 | 509 nM | 4.1 | 4.6 | 617 nM | 2.4 | 2.9 | 4.5 | 1510 nM | 1.4 | 1.5 | 117 nM | 3.1 | 15.4 | 23.8 | 365 nM | 5.7 | SI vs NIH, MCF7 Dark ([3]; dark): 6.4; GI50 [4, 11]: 817 nM; PI HeLa [4]: 1.9; SI vs MC3T3, HeLa Blue [4]: 2.2; SI vs NIH, HeLa Blue [4]: 3.4; GI50 ([4]; dark, read-out: GI50 HeLa Dark): 1540 nM; SI vs MC3T3, HeLa Dark ([4]; dark): 1.4; SI vs NIH, HeLa Dark ([4]; dark): 1.5; GI50 [5, 12]: 165 nM; PI T24 [5]: 3.0; SI vs MC3T3, T24 Blue [5]: 10.9; SI vs NIH, T24 Blue [5]: 16.8; GI50 ([5]; dark, read-out: GI50 T24 Dark): 501 nM; SI vs MC3T3, T24 Dark ([5]; dark): 4.2; SI vs NIH, T24 Dark ([5]; dark): 4.7; τ1 excited-state lifetime [6]: 167 ns; ΦPL emission quantum yield [6]: 1.1%; Average SI vs MC3T3, Blue light ([7]; GI50 MC3T3 / GI50 of all irradiated cancer cell lines): 8.6; Average SI vs NIH, Blue light ([7]; GI50 NIH-3T3 / GI50 of all irradiated cancer cell lines): 13.2
CC(C)[n+]1ccn2[c]1[Ir-3]13([c]4ccccc4-c4cccc[n+]41)([c]1ccccc1-c1cccc[n+]13)[c]1n(cc[n+]1C(C)C)C2.F[P-](F)(F)(F)(F)F [Complex 4a] | 57 nM | 4.1 | 30.5 | 48.9 | 233 nM | 10.6 | 15.8 | 107 nM | 3.3 | 16.3 | 26.1 | 355 nM | 6.9 | 10.3 | 50 nM | 4.3 | 34.8 | 55.8 | 213 nM | 11.5 | SI vs NIH, MCF7 Dark ([3]; dark): 17.2; GI50 [4, 11]: 525 nM; PI HeLa [4]: 2.5; SI vs MC3T3, HeLa Blue [4]: 3.3; SI vs NIH, HeLa Blue [4]: 5.3; GI50 ([4]; dark, read-out: GI50 HeLa Dark): 1290 nM; SI vs MC3T3, HeLa Dark ([4]; dark): 1.9; SI vs NIH, HeLa Dark ([4]; dark): 2.8; GI50 [5, 12]: 82 nM; PI T24 [5]: 3.5; SI vs MC3T3, T24 Blue [5]: 21.2; SI vs NIH, T24 Blue [5]: 34.0; GI50 ([5]; dark, read-out: GI50 T24 Dark): 288 nM; SI vs MC3T3, T24 Dark ([5]; dark): 8.5; SI vs NIH, T24 Dark ([5]; dark): 12.7; τ1 excited-state lifetime [6]: 191 ns; ΦPL emission quantum yield [6]: 1.2%
